Measured values reported in publication PMC9172056 (Journal of medicinal chemistry, 2022).

Experiments:
MERS-CoV 3CL^pro = MERS-CoV 3CL^pro (Middle East respiratory syndrome-related coronavirus, UniProt K9N7C7); assay: biochemical
SARS-CoV-2 3CL^pro = SARS-CoV-2 3CL^pro (Severe acute respiratory syndrome coronavirus 2, UniProt P0DTD1); assay: biochemical; assay type: biochemical
in vitro = conditions: cat

Sequence of MERS-CoV 3CL^pro (K9N7C7 3248-3553 limits assumed): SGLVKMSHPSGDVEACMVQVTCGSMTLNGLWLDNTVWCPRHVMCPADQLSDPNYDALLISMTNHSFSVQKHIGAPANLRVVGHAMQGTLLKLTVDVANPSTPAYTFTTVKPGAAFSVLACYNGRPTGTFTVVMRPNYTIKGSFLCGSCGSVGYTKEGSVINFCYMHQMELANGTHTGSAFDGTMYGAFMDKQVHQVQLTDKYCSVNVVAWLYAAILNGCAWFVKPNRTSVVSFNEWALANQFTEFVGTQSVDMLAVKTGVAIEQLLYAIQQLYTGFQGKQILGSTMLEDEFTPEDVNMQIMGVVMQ

Row | SMILES | IC50 (MERS-CoV 3CL^pro) | IC50 (SARS-CoV-2 3CL^pro) | CC50 (in vitro) | fold lower IC50 than compound 1b (SARS-CoV-2 3CL^pro)
1 | CC(C)C[C@H](NC(=O)OC1(C)CN(C(=O)OC(C)(C)C)C1)C(=O)N[C@@H](C[C@H]1CCNC1=O)C(O)S(=O)(=O)O (stereo partly drawn) [Compound 13c, Sodium (2S)-2-((S)-2-((((1-(tert-butoxycarbonyl)-3-methylazetidin-3-yl)oxy)carbonyl)amino)-4-methylpentanamido)-1-hydroxy-3-((R)-2-oxopyrrolidin-3-yl)propane-1-sulfonate] | 4300 ± 280 nM | 2500 ± 570 nM | > 100000 nM | 
2 | CC(C)C[C@H](NC(=O)OC1CC2(C1)CN(C(=O)C(C)C)C2)C(=O)N[C@@H](C[C@H]1CCNC1=O)C(O)S(=O)(=O)O (stereo partly drawn) [Compound 2c, Sodium (2S)-1-hydroxy-2-((S)-2-((((2-isobutyryl-2-azaspiro[3.3]heptan-6-yl)oxy)carbonyl)amino)-4-methylpentanamido)-3-((R)-2-oxopyrrolidin-3-yl)propane-1-sulfonate] | 550 ± 70 nM | 650 ± 70 nM | > 100000 nM | 
3 | CC(C)C[C@H](NC(=O)OC1CC2(C1)CN(C(=O)Cc1ccccc1)C2)C(=O)N[C@@H](C[C@H]1CCNC1=O)C(O)S(=O)(=O)O (stereo partly drawn) [Compound 3c, Sodium (2S)-1-hydroxy-2-((S)-4-methyl-2-((((2-(2-phenylacetyl)-2-azaspiro[3.3]heptan-6-yl)oxy)carbonyl)amino)pentanamido)-3-((R)-2-oxopyrrolidin-3-yl)propane-1-sulfonate] | 130 ± 30 nM | 260 ± 50 nM | > 100000 nM | 
4 | CC(C)C[C@H](NC(=O)OCC1CN(C(=O)Cc2ccccc2)C1)C(=O)N[C@@H](C[C@H]1CCNC1=O)C(O)S(=O)(=O)O (stereo partly drawn) [Compound 15c, Sodium (2S)-1-hydroxy-2-((S)-4-methyl-2-((((1-(2-phenylacetyl)azetidin-3-yl)methoxy)carbonyl)amino)pentanamido)-3-((R)-2-oxopyrrolidin-3-yl)propane-1-sulfonate] | 180 ± 10 nM | 760 ± 80 nM | > 100000 nM | 
5 | CC(C)C[C@H](NC(=O)OC1CC2(C1)CN(C(=O)Cc1ccccc1)C2)C(=O)N[C@H](C=O)C[C@H]1CCNC1=O [Compound 3b, 2-(2-Phenylacetyl)-2-azaspiro[3.3]heptan-6-yl ((S)-4-methyl-1-oxo-1-(((S)-1-oxo-3-((R)-2-oxopyrrolidin-3-yl)propan-2-yl)amino)pentan-2-yl)carbamate] |  |  | > 100000 nM | ~13 fold
6 | CC(C)C[C@H](NC(=O)OC1CC2(CCN(C(=O)C(C)C)CC2)C1)C(=O)N[C@@H](C[C@H]1CCNC1=O)C(O)S(=O)(=O)O (stereo partly drawn) [Compound 8c, Sodium (2S)-1-hydroxy-2-((S)-2-((((7-isobutyryl-7-azaspiro[3.5]nonan-2-yl)oxy)carbonyl)amino)-4-methylpentanamido)-3-((R)-2-oxopyrrolidin-3-yl)propane-1-sulfonate] | 520 ± 120 nM | 410 ± 10 nM | > 100000 nM | 
7 | CC(C)C[C@H](NC(=O)OC1CCC2(C1)CN(C(=O)OC(C)(C)C)C2)C(=O)N[C@@H](C[C@H]1CCNC1=O)C(O)S(=O)(=O)O (stereo partly drawn) [Compound 6c, Sodium (2S)-2-((2S)-2-((((2-(tert-butoxycarbonyl)-2-azaspiro[3.4]octan-6-yl)oxy)carbonyl)amino)-4-methylpentanamido)-1-hydroxy-3-((R)-2-oxopyrrolidin-3-yl)propane-1-sulfonate] | 1300 ± 140 nM | 1200 ± 140 nM | > 100000 nM | 
8 | CC(C)C[C@H](NC(=O)OC1CC2(CCN(C#N)CC2)C1)C(=O)N[C@@H](C[C@H]1CCNC1=O)C(O)S(=O)(=O)O (stereo partly drawn) [Compound 11c, Sodium (2S)-2-((S)-2-((((7-cyano-7-azaspiro[3.5]nonan-2-yl)oxy)carbonyl)amino)-4-methylpentanamido)-1-hydroxy-3-((R)-2-oxopyrrolidin-3-yl)propane-1-sulfonate] | 630 ± 180 nM | 390 ± 30 nM | > 100000 nM | 
9 | CC(C)C[C@H](NC(=O)OCC1CN(C(=O)C2CC3CCC2C3)C1)C(=O)N[C@@H](C[C@H]1CCNC1=O)C(O)S(=O)(=O)O (stereo partly drawn) [Compound 16c, Sodium (2S)-2-((2S)-2-((((1-(bicyclo[2.2.1]heptane-2-carbonyl)azetidin-3-yl)methoxy)carbonyl)amino)-4-methylpentanamido)-1-hydroxy-3-((R)-2-oxopyrrolidin-3-yl)propane-1-sulfonate] | 170 ± 30 nM | 490 ± 20 nM | > 100000 nM | 
10 | CC(C)C[C@H](NC(=O)OC1CC2(CCN(S(C)(=O)=O)CC2)C1)C(=O)N[C@@H](C[C@H]1CCNC1=O)C(O)S(=O)(=O)O (stereo partly drawn) [Compound 10c, Sodium (2S)-1-hydroxy-2-((S)-4-methyl-2-((((7-(methylsulfonyl)-7-azaspiro[3.5]nonan-2-yl)oxy)carbonyl)amino)pentanamido)-3-((R)-2-oxopyrrolidin-3-yl)propane-1-sulfonate] | 330 ± 40 nM | 240 ± 30 nM | > 100000 nM | 
11 | CC(C)C[C@H](NC(=O)OC1CC2(C1)CN(C(=O)OC(C)(C)C)C2)C(=O)N[C@@H](C[C@H]1CCNC1=O)C(O)S(=O)(=O)O (stereo partly drawn) [Compound 1c, Sodium (2S)-2-((S)-2-((((2-(tert-butoxycarbonyl)-2-azaspiro[3.3]heptan-6-yl)oxy)carbonyl)amino)-4-methylpentanamido)-1-hydroxy-3-((R)-2-oxopyrrolidin-3-yl)propane-1-sulfonate] | 280 ± 110 nM | 850 ± 70 nM | > 100000 nM | 
12 | CC(C)C[C@H](NC(=O)OC1CC2(CCN(C(=O)C(C)C)CC2)C1)C(=O)N[C@H](C=O)C[C@H]1CCNC1=O [Compound 8b, 7-Isobutyryl-7-azaspiro[3.5]nonan-2-yl ((S)-4-methyl-1-oxo-1-(((S)-1-oxo-3-((R)-2-oxopyrrolidin-3-yl)propan-2-yl)amino)pentan-2-yl)carbamate] |  |  | > 100000 nM | 
13 | CC(C)C[C@H](NC(=O)OC1CC2(C1)CN(C(=O)C(C)C)C2)C(=O)N[C@H](C=O)C[C@H]1CCNC1=O [Compound 2b, 2-Isobutyryl-2-azaspiro[3.3]heptan-6-yl ((S)-4-methyl-1-oxo-1-(((S)-1-oxo-3-((R)-2-oxopyrrolidin-3-yl)propan-2-yl)amino)pentan-2-yl)carbamate] |  |  | > 100000 nM | 
14 | CC(C)C[C@H](NC(=O)OCC1CN(C(=O)C2CC3CCC2C3)C1)C(=O)N[C@H](C=O)C[C@H]1CCNC1=O (stereo partly drawn) [Compound 16b, (1-(Bicyclo[2.2.1]heptane-2-carbonyl)azetidin-3-yl)methyl ((S)-4-methyl-1-oxo-1-(((S)-1-oxo-3-((R)-2-oxopyrrolidin-3-yl)propan-2-yl)amino)pentan-2-yl)carbamate] |  |  | > 100000 nM | 
15 | CC(C)C[C@H](NC(=O)OCC1CN(S(C)(=O)=O)C1)C(=O)N[C@H](C=O)C[C@H]1CCNC1=O [Compound 17b, (1-(Methylsulfonyl)azetidin-3-yl)methyl ((S)-4-methyl-1-oxo-1-(((S)-1-oxo-3-((R)-2-oxopyrrolidin-3-yl)propan-2-yl)amino)pentan-2-yl)carbamate] |  |  | > 100000 nM | 
16 | CC(C)C[C@H](NC(=O)OC1CC2(CCN(C(=O)OC(C)(C)C)C2)C1)C(=O)N[C@H](C=O)C[C@H]1CCNC1=O (stereo partly drawn) [Compound 5b, tert-Butyl 2-((((S)-4-methyl-1-oxo-1-(((S)-1-oxo-3-((R)-2-oxopyrrolidin-3-yl)propan-2-yl)amino)pentan-2-yl)carbamoyl)oxy)-6-azaspiro[3.4]octane-6-carboxylate] | 700 ± 140 nM |  | > 100000 nM | 
